Test results reported in ChEMBL document CHEMBL6121006, “Marine natural product-inspired discovery of novel BRD4 inhibitors with anti-inflammatory activity” (Eur J Med Chem, 2025).
Calls of active or inactive are those of the source. No cut-off for these calls is given here.

What was measured:
[1] = molecular target: Bromodomain testis-specific protein (Homo sapiens) (UniProt Q58F21); assay: Inhibition of BRDT BD2 (unknown origin) at 1 uM incubated for 2 hrs by TR-FRET assay relative to control
[2] = molecular target: T1, Bromodomain-containing protein 9 (Homo sapiens) (UniProt Q9H8M2); assay: Inhibition of BRD9 (unknown origin) at 1 uM incubated for 2 hrs by TR-FRET assay relative to control
T1 sequence (whole entry): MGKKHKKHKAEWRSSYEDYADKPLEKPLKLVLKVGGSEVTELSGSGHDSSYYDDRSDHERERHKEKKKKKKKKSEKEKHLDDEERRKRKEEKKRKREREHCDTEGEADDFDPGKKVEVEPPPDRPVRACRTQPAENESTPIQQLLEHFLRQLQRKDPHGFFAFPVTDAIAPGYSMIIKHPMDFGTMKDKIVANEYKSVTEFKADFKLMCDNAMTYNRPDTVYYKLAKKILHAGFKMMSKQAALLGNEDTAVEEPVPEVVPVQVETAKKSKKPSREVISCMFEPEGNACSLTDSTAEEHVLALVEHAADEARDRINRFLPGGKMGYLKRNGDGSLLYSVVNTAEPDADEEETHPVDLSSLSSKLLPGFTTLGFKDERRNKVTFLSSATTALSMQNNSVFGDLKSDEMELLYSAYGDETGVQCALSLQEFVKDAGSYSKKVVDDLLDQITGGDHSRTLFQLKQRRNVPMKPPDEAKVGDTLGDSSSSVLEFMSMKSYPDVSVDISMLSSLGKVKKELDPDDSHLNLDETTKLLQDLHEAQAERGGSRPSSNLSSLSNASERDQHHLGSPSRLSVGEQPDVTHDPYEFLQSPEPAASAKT

[3] = molecular target: T2, ATPase family AAA domain-containing protein 2 (Homo sapiens) (UniProt Q6PL18); assay: Inhibition of ATAD2A (unknown origin) at 1 uM incubated for 2 hrs by TR-FRET assay relative to control
T2 sequence (whole entry): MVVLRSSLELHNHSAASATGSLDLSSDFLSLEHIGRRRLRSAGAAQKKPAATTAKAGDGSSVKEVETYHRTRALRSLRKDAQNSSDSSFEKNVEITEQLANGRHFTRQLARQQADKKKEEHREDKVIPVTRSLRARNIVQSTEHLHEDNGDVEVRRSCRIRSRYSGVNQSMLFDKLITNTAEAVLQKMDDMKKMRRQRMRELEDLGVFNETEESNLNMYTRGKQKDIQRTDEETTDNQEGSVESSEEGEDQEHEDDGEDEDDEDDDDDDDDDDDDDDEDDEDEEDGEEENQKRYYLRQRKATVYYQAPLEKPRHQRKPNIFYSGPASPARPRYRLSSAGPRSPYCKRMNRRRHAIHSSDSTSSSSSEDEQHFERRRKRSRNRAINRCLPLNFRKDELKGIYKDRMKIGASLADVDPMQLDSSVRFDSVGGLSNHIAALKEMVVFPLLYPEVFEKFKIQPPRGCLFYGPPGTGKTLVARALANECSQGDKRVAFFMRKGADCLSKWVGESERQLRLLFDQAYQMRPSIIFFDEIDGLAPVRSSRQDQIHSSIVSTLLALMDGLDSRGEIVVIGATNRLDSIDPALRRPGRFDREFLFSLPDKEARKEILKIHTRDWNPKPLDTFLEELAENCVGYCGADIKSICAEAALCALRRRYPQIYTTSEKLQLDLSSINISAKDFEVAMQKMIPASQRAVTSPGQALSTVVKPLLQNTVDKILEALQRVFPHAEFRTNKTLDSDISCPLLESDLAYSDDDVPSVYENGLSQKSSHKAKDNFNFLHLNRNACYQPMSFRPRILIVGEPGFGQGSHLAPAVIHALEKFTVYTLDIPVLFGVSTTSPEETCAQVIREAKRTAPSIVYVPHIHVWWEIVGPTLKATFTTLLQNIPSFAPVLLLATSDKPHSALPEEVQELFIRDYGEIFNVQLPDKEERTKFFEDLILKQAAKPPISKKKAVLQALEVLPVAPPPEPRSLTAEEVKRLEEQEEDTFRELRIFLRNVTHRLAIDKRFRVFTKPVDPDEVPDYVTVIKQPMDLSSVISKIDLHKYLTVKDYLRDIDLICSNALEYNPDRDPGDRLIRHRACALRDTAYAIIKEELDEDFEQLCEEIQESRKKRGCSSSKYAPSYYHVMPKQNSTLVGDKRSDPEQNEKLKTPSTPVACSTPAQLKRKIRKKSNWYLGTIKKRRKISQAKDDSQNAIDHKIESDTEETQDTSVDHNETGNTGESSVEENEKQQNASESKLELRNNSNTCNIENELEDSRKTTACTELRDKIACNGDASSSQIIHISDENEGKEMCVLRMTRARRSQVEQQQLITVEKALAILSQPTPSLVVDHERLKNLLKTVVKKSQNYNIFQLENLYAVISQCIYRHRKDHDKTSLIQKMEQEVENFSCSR

[4] = molecular target: CREB-binding protein (Homo sapiens) (UniProt Q92793); assay: Inhibition of CREBBP (unknown origin) at 1 uM incubated for 2 hrs by TR-FRET assay relative to control
Sequence of CREB-binding protein (Homo sapiens) (Q92793 2-2442 limits assumed): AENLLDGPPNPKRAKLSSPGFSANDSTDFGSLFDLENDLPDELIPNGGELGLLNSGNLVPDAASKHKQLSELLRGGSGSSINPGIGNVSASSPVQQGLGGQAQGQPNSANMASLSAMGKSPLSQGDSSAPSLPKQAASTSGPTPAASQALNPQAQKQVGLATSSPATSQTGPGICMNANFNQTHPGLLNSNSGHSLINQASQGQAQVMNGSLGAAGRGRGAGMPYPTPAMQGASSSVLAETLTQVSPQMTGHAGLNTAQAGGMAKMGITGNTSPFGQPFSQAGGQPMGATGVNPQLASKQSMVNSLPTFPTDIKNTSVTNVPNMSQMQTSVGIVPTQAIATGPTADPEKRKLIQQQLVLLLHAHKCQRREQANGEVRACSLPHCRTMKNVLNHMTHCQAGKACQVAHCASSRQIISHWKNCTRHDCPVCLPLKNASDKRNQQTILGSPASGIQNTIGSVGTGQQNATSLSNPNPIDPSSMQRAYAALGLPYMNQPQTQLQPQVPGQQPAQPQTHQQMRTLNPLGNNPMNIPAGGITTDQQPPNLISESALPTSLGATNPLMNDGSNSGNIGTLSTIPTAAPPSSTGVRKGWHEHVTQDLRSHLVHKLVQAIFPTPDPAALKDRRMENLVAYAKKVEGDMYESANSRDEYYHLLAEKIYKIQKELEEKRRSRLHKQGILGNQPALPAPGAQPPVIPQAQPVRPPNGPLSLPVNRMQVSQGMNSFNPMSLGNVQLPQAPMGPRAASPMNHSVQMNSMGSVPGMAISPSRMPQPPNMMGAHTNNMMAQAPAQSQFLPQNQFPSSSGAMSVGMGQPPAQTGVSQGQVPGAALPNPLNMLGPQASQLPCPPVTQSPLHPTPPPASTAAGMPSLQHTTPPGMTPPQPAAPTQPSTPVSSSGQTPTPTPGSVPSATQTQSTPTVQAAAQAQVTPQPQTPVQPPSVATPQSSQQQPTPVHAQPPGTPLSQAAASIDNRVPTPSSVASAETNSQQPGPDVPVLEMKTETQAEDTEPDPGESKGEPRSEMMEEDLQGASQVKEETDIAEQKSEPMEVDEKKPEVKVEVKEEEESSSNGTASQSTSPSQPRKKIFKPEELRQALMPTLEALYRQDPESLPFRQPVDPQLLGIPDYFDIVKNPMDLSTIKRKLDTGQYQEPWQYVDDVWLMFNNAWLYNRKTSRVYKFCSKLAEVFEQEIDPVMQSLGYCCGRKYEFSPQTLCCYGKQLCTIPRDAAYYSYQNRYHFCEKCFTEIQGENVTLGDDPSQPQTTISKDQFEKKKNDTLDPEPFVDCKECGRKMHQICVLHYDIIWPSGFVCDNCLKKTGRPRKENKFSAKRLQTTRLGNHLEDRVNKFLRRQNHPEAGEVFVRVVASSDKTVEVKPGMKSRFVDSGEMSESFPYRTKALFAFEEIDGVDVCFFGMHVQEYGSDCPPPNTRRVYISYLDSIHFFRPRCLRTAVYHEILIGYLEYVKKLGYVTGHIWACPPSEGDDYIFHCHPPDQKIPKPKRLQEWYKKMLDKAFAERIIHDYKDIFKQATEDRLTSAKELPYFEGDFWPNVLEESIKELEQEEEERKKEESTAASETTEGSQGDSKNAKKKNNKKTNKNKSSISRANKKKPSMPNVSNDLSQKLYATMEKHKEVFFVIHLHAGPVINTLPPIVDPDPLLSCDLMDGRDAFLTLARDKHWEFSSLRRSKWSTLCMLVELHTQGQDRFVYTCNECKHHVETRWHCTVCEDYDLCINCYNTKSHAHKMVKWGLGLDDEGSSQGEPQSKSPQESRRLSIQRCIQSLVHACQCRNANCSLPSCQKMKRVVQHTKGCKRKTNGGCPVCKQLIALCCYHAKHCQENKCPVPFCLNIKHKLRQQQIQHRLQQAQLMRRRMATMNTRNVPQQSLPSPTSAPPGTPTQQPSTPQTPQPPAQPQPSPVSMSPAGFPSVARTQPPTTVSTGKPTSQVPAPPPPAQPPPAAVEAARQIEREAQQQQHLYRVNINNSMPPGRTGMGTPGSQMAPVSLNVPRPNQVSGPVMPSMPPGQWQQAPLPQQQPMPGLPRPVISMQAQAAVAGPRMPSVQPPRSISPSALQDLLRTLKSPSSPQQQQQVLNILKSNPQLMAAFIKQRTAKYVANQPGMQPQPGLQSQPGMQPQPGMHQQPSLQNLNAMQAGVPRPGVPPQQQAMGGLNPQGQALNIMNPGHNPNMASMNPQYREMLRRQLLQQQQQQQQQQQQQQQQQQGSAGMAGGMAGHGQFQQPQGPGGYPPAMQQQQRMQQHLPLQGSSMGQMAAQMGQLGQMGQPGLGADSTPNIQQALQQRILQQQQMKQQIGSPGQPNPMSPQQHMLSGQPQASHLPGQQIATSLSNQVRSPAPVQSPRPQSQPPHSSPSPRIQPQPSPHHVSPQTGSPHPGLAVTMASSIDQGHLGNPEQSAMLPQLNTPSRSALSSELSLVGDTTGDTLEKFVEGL

[5] = molecular target: Transcription initiation factor TFIID subunit 1 (Homo sapiens) (UniProt P21675); assay: Inhibition of TAF1 (unknown origin) at 1 uM incubated for 2 hrs by TR-FRET assay relative to control
Sequence of Transcription initiation factor TFIID subunit 1 (Homo sapiens) (P21675 whole entry): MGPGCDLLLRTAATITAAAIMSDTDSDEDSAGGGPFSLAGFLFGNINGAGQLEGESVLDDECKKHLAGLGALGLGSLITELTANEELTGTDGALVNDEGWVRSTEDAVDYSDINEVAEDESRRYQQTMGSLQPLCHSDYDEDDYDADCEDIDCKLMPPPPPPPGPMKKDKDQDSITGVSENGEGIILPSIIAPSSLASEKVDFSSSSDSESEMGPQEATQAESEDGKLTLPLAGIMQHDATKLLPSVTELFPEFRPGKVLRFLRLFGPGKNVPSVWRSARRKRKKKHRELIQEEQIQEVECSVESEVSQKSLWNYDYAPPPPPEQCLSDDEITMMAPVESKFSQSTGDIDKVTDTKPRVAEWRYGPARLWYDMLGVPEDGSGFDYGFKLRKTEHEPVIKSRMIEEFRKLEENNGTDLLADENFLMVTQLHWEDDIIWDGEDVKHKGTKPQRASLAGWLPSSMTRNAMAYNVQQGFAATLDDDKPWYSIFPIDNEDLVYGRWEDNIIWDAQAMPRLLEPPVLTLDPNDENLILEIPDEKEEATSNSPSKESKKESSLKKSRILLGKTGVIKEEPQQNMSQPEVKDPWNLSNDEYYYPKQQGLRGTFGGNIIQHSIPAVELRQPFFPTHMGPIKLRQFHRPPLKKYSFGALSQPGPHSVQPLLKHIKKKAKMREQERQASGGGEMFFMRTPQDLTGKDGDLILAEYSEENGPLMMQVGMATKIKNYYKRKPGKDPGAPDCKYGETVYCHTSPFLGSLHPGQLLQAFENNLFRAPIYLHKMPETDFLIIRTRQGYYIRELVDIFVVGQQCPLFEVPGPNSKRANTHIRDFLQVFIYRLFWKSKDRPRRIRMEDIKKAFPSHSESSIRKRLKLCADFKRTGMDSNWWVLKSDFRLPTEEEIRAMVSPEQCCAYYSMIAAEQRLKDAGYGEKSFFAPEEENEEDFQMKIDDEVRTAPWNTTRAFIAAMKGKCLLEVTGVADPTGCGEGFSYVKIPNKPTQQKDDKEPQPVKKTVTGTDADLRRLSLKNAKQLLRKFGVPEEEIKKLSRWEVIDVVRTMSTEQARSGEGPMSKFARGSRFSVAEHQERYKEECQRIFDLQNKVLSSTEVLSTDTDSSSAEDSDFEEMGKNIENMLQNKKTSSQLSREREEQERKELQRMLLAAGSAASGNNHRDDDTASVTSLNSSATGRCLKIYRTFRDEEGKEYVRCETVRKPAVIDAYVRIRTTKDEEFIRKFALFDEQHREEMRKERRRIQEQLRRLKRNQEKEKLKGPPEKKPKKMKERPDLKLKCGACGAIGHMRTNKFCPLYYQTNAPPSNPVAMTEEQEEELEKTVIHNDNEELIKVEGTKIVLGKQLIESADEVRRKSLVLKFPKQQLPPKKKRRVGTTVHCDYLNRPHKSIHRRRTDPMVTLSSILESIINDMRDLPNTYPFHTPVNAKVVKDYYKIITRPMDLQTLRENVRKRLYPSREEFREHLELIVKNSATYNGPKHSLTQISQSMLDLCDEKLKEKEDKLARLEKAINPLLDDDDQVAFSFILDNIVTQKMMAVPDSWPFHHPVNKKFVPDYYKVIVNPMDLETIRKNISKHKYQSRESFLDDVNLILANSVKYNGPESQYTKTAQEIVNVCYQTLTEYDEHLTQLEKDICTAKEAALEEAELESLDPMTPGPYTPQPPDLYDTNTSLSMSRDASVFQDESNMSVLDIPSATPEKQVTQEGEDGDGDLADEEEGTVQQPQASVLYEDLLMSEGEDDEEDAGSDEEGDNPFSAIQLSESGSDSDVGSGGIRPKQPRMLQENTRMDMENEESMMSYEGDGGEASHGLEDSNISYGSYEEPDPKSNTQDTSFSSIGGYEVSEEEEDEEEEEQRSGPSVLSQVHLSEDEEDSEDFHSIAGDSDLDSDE

THP-1 = assay: Anti-inflammatory activity in human THP-1 cells assessed as inhibition of LPS-induced IL-6 level preincubated with compound for 2 hrs followed by LPS stimulation and measured after 22 hrs by ELISA method; format: functional, cell-based; conditions: dose 2.5-20 µM, time 24.0 hrs
Mus musculus [6] = assay: Antiinflammatory activity against C57BL/6 mouse acute inflammation model assessed as inhibition of LPS-induced TNF-alpha level at 50 to 100 mg/kg, po pre-administered for 2 hrs followed by LPS stimulation for 6 hrs by ELISA method; format: functional, organism-based; conditions: dose 50-100 mg/kg, time 8.0 hrs
Mus musculus [7] = assay: Antiinflammatory activity against C57BL/6 mouse acute inflammation model assessed as reduction in LPS induced lung pulmonary hemorrhage at 50 to 100 mg/kg, po pre-administered for 2 hrs followed by LPS stimulation for 6 hrs; format: functional, organism-based; conditions: dose 50-100 mg/kg, time 8.0 hrs
Mus musculus [8] = assay: Antiinflammatory activity against LPS-induced C57BL/6 mouse acute inflammation model assessed as improvement of hepatic necrosis in liver at 50 to 100 mg/kg, po pre-administered for 2 hrs followed by LPS stimulation for 6 hrs; format: functional, organism-based; conditions: dose 50-100 mg/kg, time 8.0 hrs
Mus musculus [9] = assay: Antiinflammatory activity against LPS-induced C57BL/6 mouse acute inflammation model assessed as increase in proportion of normal renal tubules at 100 mg/kg, po pre-administered for 2 hrs followed by LPS stimulation for 6 hrs; format: functional, organism-based; conditions: time 8.0 hrs
[10] = Toxicity in C57BL/6 mouse effect on body weight at 100 mg/kg, po measured after 24 hrs; format: organism-based; conditions: in vivo
[11] = Toxicity in C57BL/6 mouse effect on liver at 100 mg/kg, po measured after 24 hrs; format: organism-based; conditions: in vivo
[12] = Toxicity in C57BL/6 mouse effect on spleen at 100 mg/kg, po measured after 24 hrs; format: organism-based; conditions: in vivo
[13] = Toxicity in C57BL/6 mouse effect on lung at 100 mg/kg, po measured after 24 hrs; format: organism-based; conditions: in vivo

COc1ccc(/C=C/c2nc3cc(OC)cc(OC)c3c(=O)[nH]2)cc1
inhibition [1]: 7%
inhibition [2]: 12%
inhibition [3]: 5%
inhibition [4]: 15%
inhibition [5]: 5%
Activity (THP-1): Dose-dependent-effect
Activity (Mus musculus [6]): Active
Activity (Mus musculus [7]): Active
Activity (Mus musculus [8]): Active
Activity (Mus musculus [9]): Active
Activity [10]: Non-toxic
Activity [11]: Non-toxic
Activity [12]: Non-toxic
Activity [13]: Non-toxic
